Experimental data: patent US20040043417A1, “Generation and screening of a dynamic combinatorial library” (priority 2000, published 2004)

Molecular target: Concanavalin A (Canavalia ensiformis, UniProt P02866)
Test: Screening of acyl hydrazone libraries against Concanavalin A, competitive binding assay
Description: The library was then made up of one part (40 μL) of each of these solutions, buffered with sodium acetate buffer (50 μL, 1 M, pH 4.0), and diluted with water (510 μL) to a final concentration of 1 mM of each building block, and 50 mM buffer. The resulting libraries were allowed to equilibrate for one week at room temperature to assure complete reaction, and used directly, or following concentration/dilution, in the subsequent screening tests.

NNC(=O)CCCCCCCCC(=O)NN [SED, sebacoyldihydrazide]
contribution of building block to the binding to Concanavalin A: important contributions to the binding
